Data from patent US20230105701A1, “DISSOLUTION-ENHANCED OLAPARIB COMPOSITION” (SHANGHAI INSTITUTE OF MATERIA MEDICA, CHINESE ACADEMY OF …, priority 2020, published 2023).

Columns and labels:
[1] = Solubility test (supersaturated solubility by HPLC); format: physicochemical; details: pH 4.0 citric acid/disodium hydrogen phosphate buffer, aqueous buffer, thermodynamic from solid, pH 4.0 citrate buffer, 37° C., shaker 100 rpm, equivalent to 10 mg olaparib in 5 ml, average of 2 runs
Description: The dissolution-enhanced olaparib compositions prepared in Preparation Examples 1-3 and Comparative Examples 1-8 and the olaparib API (free base) were taken in an amount equivalent to 10 mg of olaparib, dispersed in 5 ml of a pH 4.0 buffer (citric acid: 21 g/L: disodium hydrogen phosphate 71.63 g/L=61.45:38.55) as the solvent and shaken in a shaker at 100 rpm for 2 h at 37° C., and sampled. The samples were centrifugal filtered and measured by HPLC to determine the supersaturated solubility. The average value was obtained from 2 parallel runs.
The operation conditions of the HPLC were:
Apparatus: A liquid chromatograph with a UV detector;
Chromatographic Waters Sunfire C18, 4.6 mm*50 mm
Eluent: A: 0.1% TFA in water; B: 0.1% TFA in acetonitrile;

[2] = within the physiological pH range; cited from earlier work
[3] = cited from earlier work

solubility at 2 h [1]: 118 µg/mL
Compound: O=C(c1cc(Cc2n[nH]c(=O)c3ccccc23)ccc1F)N1CCN(C(=O)C2CC2)CC1 [Olaparib API, 1-(cyclopropanoyl)-4-[5-[(3,4-dihydro-4-oxo-1-phthalazinyl)methyl]-2-fluorobenzoyl]piperazine]
solubility [2]: less than 0.2 mg/ml
permeability [3]: medium
